In patent US6951840B2, “Lipoglycopeptide antibiotics” (priority 2001, dated 2005):
In brackets after ≈: the same amount, converted by molar mass.

test system: Haemophilus influenzae ATCC 49247; test: Broth micro-dilution MIC, H. influenzae ATCC 49247; format: cell-based; conditions: ATCC49247, read-out: MIC, H. influenzae ATCC49247
Experimental: (§1) The in vitro antibacterial activity of lipoglycopeptides 1, 2, 5, 6, 7, and 8 is determined according to the National Committee for Clinical Laboratory Standards (NCCLS) recommendations for broth micro-dilution assay using 2xsTH (Todd Hewitt broth), MHII (cation adjusted Mueller Hinton broth) or HTM medium (Haemophilus Test Medium) (Gerhardt, P., et al., (1994) Methods for General and Molecular Bacteriology. American Society for Microbiology, Washington, D.C.). Bacterial strains used for antibacterial assay include both gram-positive and gram-negative bacteria: S. pneumoniae R6, Staphylococcus aureus SA027, Haemophilus influenzae ATCC 49247, E. coli EL683 and EL744. A two-fold serial dilution of the test compound is prepared in 100% DMSO. The assay is performed in the wells of a sterile 96-well microplate, that is inoculated with bacterial cell suspension in growth medium or broth as above. The final volume is 100 μl cell suspension, containing 2.5% DMSO. The starting concentration of bacterial cells is 5×10^5 CFU/ml. The 96-well microplate is incubated for 23-24 hr at 37° C. in an ambient air incubator. Upon completion of incubation, the MIC (minimal inhibitory concentration) is determined by visual examination of the microplate with the aid of a magnifying mirror apparatus. The MIC is the lowest concentration of compound tested that results in no visible sign of bacterial growth.

Compound	MIC [µg/mL]
CC(C)CCCCCCCCCCCCC(=O)N(C)C(CO)C(=O)NC(C)C(=O)NCC(=O)N(C)C1C(=O)NC(C)C(=O)NC(C(=O)O)Cc2ccc(O)c(c2)-c2cc1ccc2OC1OC(C)C(O)C(O)C1O (stereo not shown) [Compound 5]	> 64
CCCCCCCCCCCCCC(=O)N(C)C(CO)C(=O)NC(C)C(=O)NCC(=O)N(C)C1C(=O)NC(C)C(=O)NC(C(=O)O)Cc2ccc(O)c(c2)-c2cc1ccc2OC1OC(C)C(O)C(O)C1O (stereo not shown) [Compound 6]	> 64

test system: S. pneumoniae R6; test: Broth micro-dilution MIC, S. pneumoniae R6; format: cell-based; conditions: 2XsTH broth, 23-24 hr at 37° C.
Experimental: as §1

Compound	MIC, S. pneumoniae R6 [µg/mL]
CC(C)CCCCCCCCCCCCC(=O)N(C)C(CO)C(=O)NC(C)C(=O)NCC(=O)N(C)C1C(=O)NC(C)C(=O)NC(C(=O)O)Cc2ccc(O)c(c2)-c2cc1ccc2OC1OC(C)C(O)C(O)C1O (stereo not shown) [Compound 5]	8 (≈ 7.79 µM)

same assay, conditions: Streptococcus pneumoniae, R6, 2XsTH broth, 23-24 hr at 37° C.

Compound	MIC [µg/mL]
CC(C)CCCCCCCCCCCCC(=O)N(C)C(CO)C(=O)NC(C)C(=O)NCC(=O)N(C)C1C(=O)NC(C)C(=O)NC(C(=O)O)Cc2ccc(O)c(c2)-c2cc1ccc2OC1OC(C)C(O)C(O)C1O (stereo not shown) [Compound 5]	16 (≈ 15.6 µM)
CCCCCCCCCCCCCC(=O)N(C)C(CO)C(=O)NC(C)C(=O)NCC(=O)N(C)C1C(=O)NC(C)C(=O)NC(C(=O)O)Cc2ccc(O)c(c2)-c2cc1ccc2OC1OC(C)C(O)C(O)C1O (stereo not shown) [Compound 6]	64 (≈ 64.1 µM)

target: T1, E. coli SPase I (Escherichia coli, UniProt P00803, I81L); test: Kinetic analysis by HPLC assay with non-fluorogenic peptide substrate; format: biochemical; conditions: not given
T1 construct: His-tag (inferred from vector pET15b cloned at NdeI/XhoI and Ni-NTA purification); made in house; host or cells: E. coli BL21(DE3)
Experimental: A kinetic analysis is performed with E. coli SPase I and the non-fluorogenic peptide substrate by HPLC assay as described in Peng, et al. (2001) J. Bacterol. 183, 621-627. 50 μl of reaction volume contains 50 nM E. coli SPase I with different concentrations of substrate and lipoglycopepetide inhibitors. The reaction mixtures are incubated at room temperature for 30 mins., and terminated by the addition of an equal amount of 8 M urea. The final concentration of DMSO in the reaction mixtures is 2%. Substrate cleavage is analyzed by HPLC as described in Peng, et al. (2001) J. Bacterol. 183, 621-627. The initial rate, K1, and inhibition type of the inhibitor is calculated with Sigma Plot 2000, Version 6.2 with enzyme kinetics module (SPSS, Inc., Cat No. 3703564).

Compound	Ki [nM]
CC(C)CCCCCCCCCCCCC(=O)N(C)C(CO)C(=O)NC(C)C(=O)NCC(=O)N(C)C1C(=O)NC(C)C(=O)NC(C(=O)O)Cc2ccc(O)c(c2)-c2cc1ccc2OC1OC(C)C(O)C(O)C1O (stereo not shown) [Compound 5]	57.5

test system: E. coli EL683; test: Broth micro-dilution MIC, E. coli EL683; format: cell-based; conditions: Escherichia coli, MHII broth, 23-24 hr at 37° C.
Experimental: as §1

Compound	MIC [µg/mL]
CC(C)CCCCCCCCCCCCC(=O)N(C)C(CO)C(=O)NC(C)C(=O)NCC(=O)N(C)C1C(=O)NC(C)C(=O)NC(C(=O)O)Cc2ccc(O)c(c2)-c2cc1ccc2OC1OC(C)C(O)C(O)C1O (stereo not shown) [Compound 5]	4 (≈ 3.89 µM)

target: T2, S. pneumoniae SPase I (Streptococcus pneumoniae serotype 4, UniProt O07344); test: Fluorimetric IC50 determination, S. pneumoniae signal peptidase; format: biochemical; conditions: 50 nM SPase I, 50 μM fluorogenic substrate, 37° C., 1-2 hrs
T2 construct: made in house
T2 sequence (O07344 whole entry): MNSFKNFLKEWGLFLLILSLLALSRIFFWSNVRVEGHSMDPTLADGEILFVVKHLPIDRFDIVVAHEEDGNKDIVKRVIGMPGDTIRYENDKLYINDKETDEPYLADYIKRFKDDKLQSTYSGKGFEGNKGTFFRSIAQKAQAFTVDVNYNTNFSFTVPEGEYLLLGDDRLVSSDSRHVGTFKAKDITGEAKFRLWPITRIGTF
Experimental: Procedures for cloning, expression and purification of S. pneumoniae Spase can be found in reference (Peng, et al. (2001) J. Bacterol. 183, 621-627).
(§2) “IC50” refers to the concentration of inhibitor required to achieve a half-maximal degree of inhibition of SPase I. The IC50 is determined by a fluorimetric assay as described in Peng, et al. (2001) J. Bacterol. 183, 621-627, with a fluorogenic peptide used as substrate as described therein. The reaction is performed in 50 μls of reaction mixture containing 50 nM of either E. coli or S. pneumoniae SPase I, 50 μM substrate, and a series dilution of inhibitor. Inhibitors are dissolved in dimethylsulfoxide (DMSO). Compounds in DMSO are diluted in reaction buffer. The final DMSO concentration in the reaction mixtures is 2% (v/v). Reaction mixtures are incubated at 37° C. for 1-2 hrs. The IC50 is calculated using a nonlinear regression method with GraphPad Prism™ Software (GraphPad G3-A13127-507). The inhibitory activity of lipoglycopeptides 1-8 against both E. coli and S. pneumoniae signal peptidases, are summarized in Table 7.

Compound	IC50 [nM]
CC(C)CCCCCCCCCCCCC(=O)N(C)C(CO)C(=O)NC(C)C(=O)NCC(=O)N(C)C1C(=O)NC(C)C(=O)NC(C(=O)O)Cc2ccc(O)c(c2)-c2cc1ccc2OC1OC(C)C(O)C(O)C1O (stereo not shown) [Compound 5]	2400
CCCCCCCCCCCCCC(=O)N(C)C(CO)C(=O)NC(C)C(=O)NCC(=O)N(C)C1C(=O)NC(C)C(=O)NC(C(=O)O)Cc2ccc(O)c(c2)-c2cc1ccc2OC1OC(C)C(O)C(O)C1O (stereo not shown) [Compound 6]	6600

target: T1, E. coli SPase I; test: Fluorimetric IC50 determination, E. coli signal peptidase; format: biochemical; conditions: not given
Experimental: Cloning and expression of the E. coli SPase I gene is performed by polymerase chain reaction (PCR) using E. coli genomic DNA as a template and two oligonucleotides as primers: 5′-[…]-3′ (SEQ ID NO: 1) and 5′-[…]-3′ (SEQ ID NO:2). The primers are designed to contain NdeI and XhoI restriction sites at the 5′-ends, respectively, to enable cloning into the bacterial expression vector pET15b (Novagen). The primers are synthesized based upon the published sequence of E. coli SPase I (Wolfe, et al. (1983) J. Biol. Chem. 258, 12073-12080).
Expression vector pET15b-E. coli SPase is constructed by replacing the NdeI/XhoI fragment of pET15b with the PCR fragment that is purified and digested with Ndel and XhoI. The identity of the cloned gene is confirmed by DNA sequencing. For expression of E. coli SPase I, E. coli strain BL21(DE3)(Stratagene) is transformed with pET15b-E. coli SPase, and grown and induced with 0.4 mM IPTG (isopropryl-1-thio-β-D-galactopyranoside) as described in Studier, et al. (1990) Methods Enzymol. 185, 60-89.
For purification of E. coli SPase T, one liter of IPTG-induced E. coli BL21(DE3) cells harboring pET15b-E coli SPase is harvested by centrifugation and re-suspended in 50 ml of lysis buffer containing 50 mM Na2HPO4, 300 mM NaCl, pH 8.0, and sonicated 5 min. on ice. The lysate is then centrifuged at 50,000 g for 1 hr at 4° C. The resultant supernatant is discarded, the pellet is re-suspended, and sonicated for 5 min. in 20 ml of lysis buffer containing 8 M urea. After centrifugation at 50,000 g for 1 hr at 4° C., the supernatant is loaded onto a 5 ml column of pre-equilibrated Ni-nitrilotriacetic acid (NTA) that is then washed with 120 ml of refolding buffer (50 mM NaH2PO4, 300 mM NaCl, 15 mM imidazole) containing a continuous urea gradient from 6 to 1 M with a flow rate of 1 ml/min. The protein is eluted with 20 ml of elution buffer (20 mM Tris-HCl, pH 8.0, 20% glycerol, 1 M urea and 100 mM imidazole), and 1 ml fractions are collected and utilized for enzyme assay.
Target sequence in this assay (P00803 77-324 I81L): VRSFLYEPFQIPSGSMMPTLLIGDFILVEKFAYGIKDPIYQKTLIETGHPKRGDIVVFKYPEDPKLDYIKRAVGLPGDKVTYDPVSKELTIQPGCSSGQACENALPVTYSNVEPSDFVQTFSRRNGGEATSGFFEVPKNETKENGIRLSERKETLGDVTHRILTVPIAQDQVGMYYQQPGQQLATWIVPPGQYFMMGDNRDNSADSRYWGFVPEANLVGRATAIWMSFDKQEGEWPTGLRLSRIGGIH
as §2

Compound	IC50 [nM]
CC(C)CCCCCCCCCCCCC(=O)N(C)C(CO)C(=O)NC(C)C(=O)NCC(=O)N(C)C1C(=O)NC(C)C(=O)NC(C(=O)O)Cc2ccc(O)c(c2)-c2cc1ccc2OC1OC(C)C(O)C(O)C1O (stereo not shown) [Compound 5]	130
CCCCCCCCCCCCCC(=O)N(C)C(CO)C(=O)NC(C)C(=O)NCC(=O)N(C)C1C(=O)NC(C)C(=O)NC(C(=O)O)Cc2ccc(O)c(c2)-c2cc1ccc2OC1OC(C)C(O)C(O)C1O (stereo not shown) [Compound 6]	110

test system: Staphylococcus aureus (ATCC 33592); test: Beta-lactamase release assay; format: cell-based; conditions: beta-lactamase-producing S. aureus ATCC 33592, 2 hr incubation with inhibitor
Experimental: In Staphylococcus aureus, signal peptidase cleaves beta-lactamase, resulting in the release of beta-lactaidase into the medium. In this example, the ability of lipoglycopeptides 1,2, and 5 to inhibit the release of beta-lactamase from Staphylococcus aureus into the medium is examined.
Staphylococcus aureus (ATCC 33592) cells are grown overnight in a series dilution in Brain Heart Infusion (BHI) (Gerhardt, P., et al., (1994) Methods for General and Molecular Bacteriology. American Society for Microbiology, Washington, D.C.) medium in a 37° C. incubator containing 5% CO2. Cultures with an OD660 less than 0.3 are centrifuged, and the cells are washed once with fresh BHI medium. The cells are then resuspended in fresh BHI medium to an initial OD660 of 0.15-0.2. At the same time, the selected inhibitor is diluted from the DMSO stock solution into BHI medium at different concentrations, and is added to the cells which are then incubated at 37° C. under 5% CO2 for 2 hr. The final DMSO concentration in the reaction mixtures is 1% (v/v). The OD660 is measured at the end of incubation. The cells are centrifuged, and the supernatant is saved for the determination of secreted beta-lactamase. The pellet is washed once with fresh BHI medium, re-suspended in the equivalent volume of fresh BHI medium, frozen, and then thawed […]. for three cycles, and used for the determination of retained beta-lactamase. For the determination of beta-lactamase activity, 100 μl reaction mixture (30-50 μls of supernatant or lysed cells) is incubated with 250 μM nitrocefin in 1×PBS buffer (phosphate buffered saline) (pH 6.8) at 37° C. for 30-60 min. Nitrocefin is the substrate for beta-lactamase. Cleavage of nitrocefin results in an increase in absorbance at 482 nm. The absorbance at 482 nm (OD482) is measured at the beginning and at the end of the reaction. The secreted and the retained beta-lactamase activities are calculated based upon the ΔOD482.

Compound	inhibition of secretion of beta-lactamase
CC(C)CCCCCCCCCCCCC(=O)N(C)C(CO)C(=O)NC(C)C(=O)NCC(=O)N(C)C1C(=O)NC(C)C(=O)NC(C(=O)O)Cc2ccc(O)c(c2)-c2cc1ccc2OC1OC(C)C(O)C(O)C1O (stereo not shown) [Compound 5]	inhibit the secretion of beta-lactamase

test system: E. coli EL744; test: Broth micro-dilution MIC, E. coli EL744; format: cell-based; conditions: Escherichia coli, MHII broth, 23-24 hr at 37° C.
Experimental: as §1

Compound	MIC [µg/mL]
CC(C)CCCCCCCCCCCCC(=O)N(C)C(CO)C(=O)NC(C)C(=O)NCC(=O)N(C)C1C(=O)NC(C)C(=O)NC(C(=O)O)Cc2ccc(O)c(c2)-c2cc1ccc2OC1OC(C)C(O)C(O)C1O (stereo not shown) [Compound 5]	16 (≈ 15.6 µM)
CCCCCCCCCCCCCC(=O)N(C)C(CO)C(=O)NC(C)C(=O)NCC(=O)N(C)C1C(=O)NC(C)C(=O)NC(C(=O)O)Cc2ccc(O)c(c2)-c2cc1ccc2OC1OC(C)C(O)C(O)C1O (stereo not shown) [Compound 6]	8 (≈ 8.01 µM)

test system: Staphylococcus aureus SA027; test: Broth micro-dilution MIC, S. aureus SA027; format: cell-based; conditions: MHII broth, 23-24 hr at 37° C.
Experimental: as §1

Compound	MIC [µg/mL]
CC(C)CCCCCCCCCCCCC(=O)N(C)C(CO)C(=O)NC(C)C(=O)NCC(=O)N(C)C1C(=O)NC(C)C(=O)NC(C(=O)O)Cc2ccc(O)c(c2)-c2cc1ccc2OC1OC(C)C(O)C(O)C1O (stereo not shown) [Compound 5]	> 64
CCCCCCCCCCCCCC(=O)N(C)C(CO)C(=O)NC(C)C(=O)NCC(=O)N(C)C1C(=O)NC(C)C(=O)NC(C(=O)O)Cc2ccc(O)c(c2)-c2cc1ccc2OC1OC(C)C(O)C(O)C1O (stereo not shown) [Compound 6]	> 64
